Values belong to the molecule of their own block, whether it stands above or below them.
Tests used:
[1] = system: Resistant A. baumannii; experiment: Synergy of inhibitors with imipenem against resistant A. baumannii; assay type: cell-based
Description: (§1) Tables 2 and 3 show the effectiveness of inhibitory compounds of the invention in killing resistant bacterial strains with imipenem, a β-lactam antibiotic.

[2] = system: Resistant P. aeruginosa; experiment: Synergy of inhibitors with imipenem against resistant P. aeruginosa; assay type: cell-based
Description: as §1

[3] = biological target: AmpC β-lactamase; details: read-out: IC50 AmpC A. baumannii
Description: Methods for testing the β-lactamase inhibitory bioactivity of compounds are well known in the art. For example, see T. Viswanantha, et al. (2008), “Assays for β-lactamase Activity and Inhibition,”, Methods in Molecular Medicine, 142: New Antibiotic Targets, Chapter 19, pp. 239-260, and references cited therein.

[4] = biological target: TEM-1 β-lactamase (Escherichia coli, UniProt P62593); experiment: Inhibition of representative β-lactamases: TEM-1; assay type: biochemical; details: read-out: IC50 TEM-1 E. Coli
[5] = biological target: OXA-40 β-lactamase (Acinetobacter baumannii, UniProt Q8RLA6); assay type: biochemical
[6] = biological target: T1, AmpC β-lactamase (Pseudomonas aeruginosa, UniProt P24735); experiment: Inhibition of representative β-lactamases: AmpC P. aeruginosa; assay type: biochemical
[7] = biological target: T1, AmpC β-lactamase; experiment: Inhibition of representative β-lactamases: AmpC P. aeruginosa in serum; assay type: biochemical

T1 sequence (P24735 27-397): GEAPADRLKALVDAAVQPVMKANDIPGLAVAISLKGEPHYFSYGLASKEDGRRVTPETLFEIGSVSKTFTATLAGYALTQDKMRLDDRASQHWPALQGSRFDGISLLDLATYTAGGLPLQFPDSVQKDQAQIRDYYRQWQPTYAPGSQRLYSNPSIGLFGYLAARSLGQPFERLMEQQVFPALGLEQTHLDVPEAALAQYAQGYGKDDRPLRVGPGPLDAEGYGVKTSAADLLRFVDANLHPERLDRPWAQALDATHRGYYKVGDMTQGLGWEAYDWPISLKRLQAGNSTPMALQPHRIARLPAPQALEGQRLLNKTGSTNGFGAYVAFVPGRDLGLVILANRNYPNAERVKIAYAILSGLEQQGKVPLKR
Sequence of OXA-40 β-lactamase (Q8RLA6 22-275): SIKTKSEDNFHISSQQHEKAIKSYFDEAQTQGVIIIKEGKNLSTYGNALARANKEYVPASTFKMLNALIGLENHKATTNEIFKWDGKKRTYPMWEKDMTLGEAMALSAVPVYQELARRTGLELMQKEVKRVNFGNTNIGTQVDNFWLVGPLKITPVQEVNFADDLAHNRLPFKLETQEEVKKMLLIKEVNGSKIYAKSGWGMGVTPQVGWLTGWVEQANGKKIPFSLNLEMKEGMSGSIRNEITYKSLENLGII
Sequence of TEM-1 β-lactamase (P62593 24-286 limits assumed): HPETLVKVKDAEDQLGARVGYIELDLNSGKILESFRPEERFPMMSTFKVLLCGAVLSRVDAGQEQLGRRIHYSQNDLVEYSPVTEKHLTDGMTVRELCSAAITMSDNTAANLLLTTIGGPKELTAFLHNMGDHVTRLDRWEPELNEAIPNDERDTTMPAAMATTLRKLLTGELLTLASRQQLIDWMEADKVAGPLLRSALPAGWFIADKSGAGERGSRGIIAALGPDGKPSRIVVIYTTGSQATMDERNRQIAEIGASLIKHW

MIC ([1]; Acinetobacter baumannii, imipenem alone, no inhibitor): 256 µg/mL | MIC ([2]; Pseudomonas aeruginosa, imipenem alone, no inhibitor): 20 µg/mL
SMILES: C[C@@H](O)[C@H]1C(=O)N2C(C(=O)O)=C(SCCN=CN)C[C@H]12 [Imipenem, imipenem, reference compound]

SMILES: C[C@]1(COC(=O)Cc2ccc(O)c(O)c2)[C@H](C(=O)O)N2C(=O)/C(=C/c3ccccn3)[C@H]2S1(=O)=O [JDB/LN-1-255]
IC50 [3]: 4 nM | IC50 [4]: 0.03 nM | IC50 [5]: 11 nM | Inhibitor concentration with imipenem at 0.0313 MIC ([1]; imipenem 8 mg/L (0.0313 MIC)): >100 µg/mL | Inhibitor concentration with imipenem at 0.0625 MIC ([1]; imipenem 16 mg/L (0.0625 MIC)): 100 µg/mL | Inhibitor concentration with imipenem at 0.125 MIC ([1]; imipenem 32 mg/L (0.125 MIC)): 50 µg/mL | Inhibitor concentration with imipenem at 0.25 MIC ([1]; imipenem 64 mg/L (0.25 MIC)): 25 µg/mL | Inhibitor concentration with imipenem at 0.5 MIC ([1]; imipenem 128 mg/L (0.5 MIC)): 6.25 µg/mL | IC50 [6]: 6 nM | Inhibitor concentration with imipenem at 0.0313 MIC ([2]; imipenem 0.625 mg/L (0.0313 MIC)): >100 µg/mL | Inhibitor concentration with imipenem at 0.0625 MIC ([2]; imipenem 1.25 mg/L (0.0625 MIC)): 100 µg/mL | Inhibitor concentration with imipenem at 0.125 MIC ([2]; imipenem 2.5 mg/L (0.125 MIC)): 50 µg/mL | Inhibitor concentration with imipenem at 0.25 MIC ([2]; imipenem 5 mg/L (0.25 MIC)): 25 µg/mL | Inhibitor concentration with imipenem at 0.5 MIC ([2]; imipenem 10 mg/L (0.5 MIC)): 6.25 µg/mL | IC50 [7]: 82 nM

From patent US8575144B2, “Beta-lactamase inhibitory compounds” (Southern Methodist University, priority 2008, dated 2013)
